Results published in ChEMBL document CHEMBL1201862, “PubChem BioAssay data set” (2004).
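Tested at 5 concentrations; 48 h exposure; 96-well plates; endpoints linearly interpolated, else capped at highest concentration. Here, GI50 denotes the concentration required for 50% inhibition of growth.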 Calls of active or inactive are those of the source. Rule as the data show it: active = GI50 up to about 1.1 µM and inactive = higher.

What was measured:
Assay in all cases: inhibition of tumour cell growth, NCI panel, 48 h
OVCAR-8 = tested on: OVCAR-8
NCI-H23 = tested on: NCI-H23
SK-MEL-28 = tested on: SK-MEL-28
LOX IMVI = tested on: LOX IMVI
786-0 = tested on: 786-0
HOP-92 = tested on: HOP-92
SF-295 = tested on: SF-295
SF-539 = tested on: SF-539
HCC 2998 = tested on: HCC 2998
SNB-19 = tested on: SNB-19
MOLT-4 = tested on: MOLT-4
UO-31 = tested on: UO-31
Malme-3M = tested on: Malme-3M
ACHN = tested on: ACHN
KM12 = tested on: KM12
A549 = tested on: A549
SK-MEL-5 = tested on: SK-MEL-5
SR = tested on: SR

Measured: GI50

O=[N+]([O-])c1ccc(/C=N/C23CC4CC(CC(C4)C2)C3)cc1
inactive: OVCAR-8 > 100 µM | NCI-H23 > 100 µM | SK-MEL-28 > 100 µM | LOX IMVI 85.7 µM | 786-0 > 100 µM | HOP-92 > 100 µM | SF-295 > 100 µM | SF-539 > 100 µM | HCC 2998 > 100 µM | SNB-19 > 100 µM | MOLT-4 > 100 µM | UO-31 > 100 µM | Malme-3M > 100 µM | ACHN > 100 µM | KM12 > 100 µM

CC1=NN(C(=O)Cc2ccccc2)C(=O)/C1=C\c1ccc([N+](=O)[O-])cc1
inactive: OVCAR-8 > 100 µM | A549 > 100 µM | NCI-H23 > 100 µM | SK-MEL-28 > 100 µM | LOX IMVI > 100 µM | 786-0 > 100 µM | HOP-92 1.15 µM | SF-295 > 100 µM | SK-MEL-5 > 100 µM | SF-539 > 100 µM | HCC 2998 > 100 µM | SNB-19 > 100 µM | MOLT-4 > 100 µM | UO-31 > 100 µM | Malme-3M > 100 µM | ACHN > 100 µM | KM12 > 100 µM

O=c1c2ccccc2nc(-c2cccc(Cl)c2)n1NCC1(O)OCC(O)C(O)C1O (stereo not given)
inactive: OVCAR-8 > 100 µM | A549 > 100 µM | NCI-H23 > 100 µM | SK-MEL-28 > 100 µM | LOX IMVI > 100 µM | 786-0 > 100 µM | SR 43.9 µM | SF-295 > 100 µM | SK-MEL-5 > 10 µM | SF-539 > 100 µM | SNB-19 > 100 µM | MOLT-4 48.2 µM | UO-31 > 100 µM | Malme-3M > 100 µM | ACHN > 100 µM | KM12 > 100 µM

CN1C(=O)N(c2nc3ccccc3[nH]2)C(C)(C)C1=O
inactive: OVCAR-8 > 100 µM | A549 > 100 µM | NCI-H23 > 100 µM | SK-MEL-28 > 100 µM | LOX IMVI > 100 µM | 786-0 > 100 µM | SR > 100 µM | SF-295 > 100 µM | SK-MEL-5 > 100 µM | SF-539 > 100 µM | SNB-19 > 100 µM | MOLT-4 > 100 µM | UO-31 > 100 µM | Malme-3M > 100 µM | ACHN > 100 µM | KM12 > 100 µM

COC(=O)N/N=C(/CCC(=O)Nc1ccc(C)c(C)c1)CC(=O)C(C)(C)C
inactive: OVCAR-8 > 100 µM | A549 > 100 µM | NCI-H23 > 100 µM | SK-MEL-28 > 100 µM | LOX IMVI > 100 µM | 786-0 > 100 µM | SF-295 > 100 µM | SK-MEL-5 > 100 µM | SF-539 > 100 µM | HCC 2998 > 100 µM | SNB-19 > 100 µM | MOLT-4 > 100 µM | UO-31 > 100 µM | Malme-3M > 100 µM | ACHN > 100 µM | KM12 > 100 µM

CCOC(=O)C1=C(C)N(c2ccc(C)cc2)C2=C(C(=O)N(c3ccccc3)C2c2ccccc2)C1c1ccccc1 (stereo not given)
inactive: OVCAR-8 > 25 µM | A549 10.7 µM | NCI-H23 11.9 µM | SK-MEL-28 > 25 µM | LOX IMVI > 25 µM | 786-0 > 25 µM | SR 17.7 µM | SF-295 22.2 µM | SK-MEL-5 16.5 µM | SF-539 > 25 µM | HCC 2998 18.4 µM | SNB-19 > 25 µM | MOLT-4 7.82 µM | UO-31 21 µM | Malme-3M > 25 µM | ACHN 16.6 µM

ClC/C=C/COC1CCCCO1 (stereo not given)
inactive: OVCAR-8 57.5 µM | A549 > 100 µM | NCI-H23 > 100 µM | 786-0 > 100 µM | HOP-92 > 100 µM | SR 18.2 µM | SF-295 > 100 µM | SK-MEL-5 > 100 µM | SF-539 > 100 µM | HCC 2998 > 100 µM | SNB-19 > 100 µM | MOLT-4 29 µM | UO-31 > 100 µM | Malme-3M > 100 µM | ACHN 60.5 µM | KM12 > 100 µM

Cc1cc2c(cc1C)[n+]([O-])c(C(=O)C/C(=N/NC(=S)NN)C(=O)Nc1cccc(C(F)(F)F)c1)c[n+]2[O-]
inactive: OVCAR-8 > 100 µM | A549 > 100 µM | NCI-H23 > 100 µM | SK-MEL-28 > 100 µM | 786-0 > 100 µM | HOP-92 > 100 µM | SR 65.6 µM | SF-295 > 100 µM | SK-MEL-5 > 100 µM | SF-539 > 100 µM | HCC 2998 > 100 µM | SNB-19 34 µM | MOLT-4 > 100 µM | UO-31 > 100 µM | Malme-3M > 100 µM | ACHN > 100 µM | KM12 > 100 µM

OCc1cc2c(cn1)[nH]c1ccc(NCc3ccccc3)cc12
inactive: OVCAR-8 29.4 µM | A549 28.1 µM | NCI-H23 20 µM | SK-MEL-28 16.1 µM | LOX IMVI 28.4 µM | 786-0 25.2 µM | HOP-92 15.9 µM | SF-295 22.3 µM | SK-MEL-5 12.2 µM | SF-539 30.3 µM | HCC 2998 24.8 µM | SNB-19 37.3 µM | MOLT-4 17.5 µM | UO-31 20.7 µM | Malme-3M 28.7 µM | ACHN 20 µM | KM12 18.6 µM

O=C1OC(c2ccccc2)=N/C1=C/NC(Cc1ccccc1)C(=O)O (stereo not given)
inactive: OVCAR-8 > 100 µM | A549 > 100 µM | NCI-H23 > 100 µM | SK-MEL-28 > 100 µM | LOX IMVI > 100 µM | 786-0 > 100 µM | SR > 100 µM | SF-295 > 100 µM | SK-MEL-5 > 100 µM | SF-539 > 100 µM | HCC 2998 > 100 µM | SNB-19 > 100 µM | MOLT-4 > 100 µM | UO-31 > 100 µM | Malme-3M > 100 µM | ACHN > 100 µM | KM12 > 100 µM

N#CC(C#N)=CSc1ccccc1
inactive: OVCAR-8 17.8 µM | A549 19.6 µM | NCI-H23 57.4 µM | SK-MEL-28 23.8 µM | LOX IMVI 12.6 µM | 786-0 16.7 µM | HOP-92 50.2 µM | SR 7.6 µM | SF-295 35 µM | SK-MEL-5 28.5 µM | SF-539 20 µM | SNB-19 60 µM | MOLT-4 13.2 µM | UO-31 13.3 µM | ACHN 30.5 µM | KM12 19.7 µM

O=C1C(Cl)C(c2cc(Br)cc(Br)c2O)N1n1cnc2ccccc2c1=O (stereo not given)
inactive: OVCAR-8 24.7 µM | A549 65.9 µM | NCI-H23 23.8 µM | SK-MEL-28 19.6 µM | LOX IMVI 14.1 µM | 786-0 26.2 µM | SR 7.76 µM | SF-295 6.76 µM | SK-MEL-5 18.8 µM | HCC 2998 30.2 µM | SNB-19 30.3 µM | MOLT-4 7.46 µM | UO-31 20.7 µM | Malme-3M 19 µM | ACHN 28.2 µM | KM12 25.1 µM
